Assay results as given in PubChem BioAssay (NCI).
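Dose response: 5 concentrations. Exposure: 48 h. Format: 96-well plates. Endpoint: linear interpolation; highest concentration if not reached. The concentration for 50% growth inhibition is given as GI50. Definition used: TGI = concentration required for complete inhibition of growth.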 Where a SMILES comes first, the peptide text is derived from it. [ ]: non-standard residue; d: D form. Phe(4-Cl) = N[CH](Cc1ccc(Cl)cc1)C(=O)O; 2Nal = N[CH](Cc1ccc2ccccc2c1)C(=O)O; 3Pal = N[CH](Cc1cccnc1)C(=O)O

Columns and labels:
Assay in all cases: inhibition of tumour cell growth, NCI panel, 48 h; in the data active = GI50 below about 0.43 µM; inactive = the rest
786-0 renal = test system: 786-0 renal
A498 renal = test system: A498 renal
A549 NSCLC = test system: A549 NSCLC
ACHN renal = test system: ACHN renal
CCRF-CEM leukemia = test system: CCRF-CEM leukemia
COLO 205 colon = test system: COLO 205 colon
DU-145 prostate = test system: DU-145 prostate
EKVX NSCLC = test system: EKVX NSCLC
HCC-2998 colon = test system: HCC-2998 colon
HCT-116 colon = test system: HCT-116 colon
HCT-15 colon = test system: HCT-15 colon
HL-60(TB) leukemia = test system: HL-60(TB) leukemia
HOP-62 NSCLC = test system: HOP-62 NSCLC
HOP-92 NSCLC = test system: HOP-92 NSCLC
HS 578T breast = test system: HS 578T breast
HT29 colon = test system: HT29 colon
IGROV1 ovarian = test system: IGROV1 ovarian
KM12 colon = test system: KM12 colon
M14 melanoma = test system: M14 melanoma
MALME-3M melanoma = test system: MALME-3M melanoma
MCF7 breast = test system: MCF7 breast
MDA-MB-231 breast = test system: MDA-MB-231 breast
MDA-MB-435 = test system: MDA-MB-435
MOLT-4 leukemia = test system: MOLT-4 leukemia
NCI-H226 lung = test system: NCI-H226 lung
NCI-H23 lung = test system: NCI-H23 lung
NCI-H460 lung = test system: NCI-H460 lung
NCI/ADR-RES ovarian = test system: NCI/ADR-RES ovarian
OVCAR-4 ovarian = test system: OVCAR-4 ovarian
OVCAR-5 ovarian = test system: OVCAR-5 ovarian
OVCAR-8 ovarian = test system: OVCAR-8 ovarian
RPMI-8226 leukemia = test system: RPMI-8226 leukemia
RXF 393 renal = test system: RXF 393 renal
SF-268 CNS = test system: SF-268 CNS
SF-295 CNS = test system: SF-295 CNS
SF-539 CNS = test system: SF-539 CNS
SK-MEL-28 melanoma = test system: SK-MEL-28 melanoma
SK-MEL-5 melanoma = test system: SK-MEL-5 melanoma
SK-OV-3 ovarian = test system: SK-OV-3 ovarian
SN12C renal = test system: SN12C renal
SNB-19 CNS = test system: SNB-19 CNS
SNB-75 CNS = test system: SNB-75 CNS
SR leukemia = test system: SR leukemia
SW-620 colon = test system: SW-620 colon
T-47D breast = test system: T-47D breast
TK-10 renal = test system: TK-10 renal
U251 CNS = test system: U251 CNS
UACC-257 melanoma = test system: UACC-257 melanoma
UACC-62 melanoma = test system: UACC-62 melanoma
UO-31 renal = test system: UO-31 renal
CAKI-1 renal = test system: CAKI-1 renal
K-562 leukemia = test system: K-562 leukemia
LOX IMVI melanoma = test system: LOX IMVI melanoma
NCI-H522 lung = test system: NCI-H522 lung
OVCAR-3 ovarian = test system: OVCAR-3 ovarian
PC-3 prostate = test system: PC-3 prostate
SK-MEL-2 melanoma = test system: SK-MEL-2 melanoma
BT-549 breast = test system: BT-549 breast

Cc1cc(NC2=NCCO2)c2c(c1C)CCCC2
77.9 µM: TGI (MDA-MB-231 breast)
76.5 µM: TGI (T-47D breast)
63 µM: TGI (NCI-H460 lung)
39.5 µM: TGI (MDA-MB-435)
45.3 µM: TGI (RPMI-8226 leukemia)
33.2 µM: TGI (HL-60(TB) leukemia)
13.6 µM: TGI (HOP-92 NSCLC)
49.8 µM: TGI (A498 renal)
31.5 µM: TGI (SK-MEL-5 melanoma)
54.7 µM: TGI (SF-268 CNS)
31 µM: TGI (MCF7 breast)
38.8 µM: TGI (SNB-19 CNS)
25.9 µM: TGI (MALME-3M melanoma)
33.5 µM: TGI (KM12 colon)
39.1 µM: TGI (UACC-257 melanoma)
66.3 µM: TGI (SN12C renal)
63.1 µM: TGI (U251 CNS)
> 100 µM: TGI (A549 NSCLC) | TGI (ACHN renal) | TGI (CCRF-CEM leukemia) | TGI (DU-145 prostate) | TGI (EKVX NSCLC) | TGI (HCT-116 colon) | TGI (HS 578T breast) | TGI (IGROV1 ovarian) | TGI (NCI-H23 lung) | TGI (OVCAR-4 ovarian) | TGI (OVCAR-8 ovarian) | TGI (RXF 393 renal) | TGI (SK-OV-3 ovarian) | TGI (SW-620 colon) | TGI (TK-10 renal)
57.1 µM: TGI (OVCAR-5 ovarian)
31.8 µM: TGI (SF-295 CNS)
95.3 µM: TGI (MOLT-4 leukemia)
32 µM: TGI (HOP-62 NSCLC)
12.4 µM: TGI (NCI-H226 lung)
43 µM: TGI (786-0 renal)
40.7 µM: TGI (SK-MEL-28 melanoma)
73.1 µM: TGI (NCI/ADR-RES ovarian)
67.5 µM: TGI (SNB-75 CNS)
49.6 µM: TGI (HCT-15 colon)
75.9 µM: TGI (SR leukemia)
49.7 µM: TGI (HT29 colon)
28.1 µM: TGI (M14 melanoma)
46.6 µM: TGI (COLO 205 colon)
29 µM: TGI (HCC-2998 colon)
41.1 µM: TGI (UACC-62 melanoma)
22.6 µM: TGI (SF-539 CNS)
30.7 µM: TGI (UO-31 renal)

Cc1c(N2C(=O)/C(=C\c3ccc(O)cc3)N=C2c2ccccc2)c(=O)n(-c2ccccc2)n1C
inactive: GI50 (786-0 renal) > 100 µM | GI50 (A498 renal) > 100 µM | GI50 (A549 NSCLC) > 100 µM | GI50 (ACHN renal) > 100 µM | GI50 (CAKI-1 renal) > 100 µM | GI50 (COLO 205 colon) > 100 µM | GI50 (DU-145 prostate) > 100 µM | GI50 (EKVX NSCLC) > 100 µM | GI50 (HCC-2998 colon) > 100 µM | GI50 (HCT-116 colon) > 100 µM | GI50 (HCT-15 colon) > 100 µM | GI50 (HL-60(TB) leukemia) > 100 µM | GI50 (HOP-62 NSCLC) > 100 µM | GI50 (HOP-92 NSCLC) > 100 µM | GI50 (HS 578T breast) > 100 µM | GI50 (HT29 colon) > 100 µM | GI50 (IGROV1 ovarian) > 100 µM | GI50 (K-562 leukemia) > 100 µM | GI50 (KM12 colon) > 100 µM | GI50 (LOX IMVI melanoma) > 100 µM | GI50 (M14 melanoma) > 100 µM | GI50 (MALME-3M melanoma) > 100 µM | GI50 (MCF7 breast) > 100 µM | GI50 (MDA-MB-231 breast) > 100 µM | GI50 (MDA-MB-435) > 100 µM | GI50 (MOLT-4 leukemia) > 100 µM | GI50 (NCI-H226 lung) > 100 µM | GI50 (NCI-H23 lung) > 100 µM | GI50 (NCI-H460 lung) > 100 µM | GI50 (NCI-H522 lung) > 100 µM | GI50 (NCI/ADR-RES ovarian) > 100 µM | GI50 (OVCAR-3 ovarian) > 100 µM | GI50 (OVCAR-4 ovarian) > 100 µM | GI50 (OVCAR-5 ovarian) > 100 µM | GI50 (OVCAR-8 ovarian) > 100 µM | GI50 (PC-3 prostate) > 100 µM | GI50 (RPMI-8226 leukemia) > 100 µM | GI50 (RXF 393 renal) > 100 µM | GI50 (SF-268 CNS) > 100 µM | GI50 (SF-295 CNS) > 100 µM | GI50 (SF-539 CNS) > 100 µM | GI50 (SK-MEL-2 melanoma) > 100 µM | GI50 (SK-MEL-28 melanoma) > 100 µM | GI50 (SK-MEL-5 melanoma) > 100 µM | GI50 (SK-OV-3 ovarian) > 100 µM | GI50 (SN12C renal) > 100 µM | GI50 (SNB-19 CNS) > 100 µM | GI50 (SNB-75 CNS) > 100 µM | GI50 (SW-620 colon) > 100 µM | GI50 (T-47D breast) > 100 µM | GI50 (TK-10 renal) > 100 µM | GI50 (U251 CNS) > 100 µM | GI50 (UACC-257 melanoma) > 100 µM | GI50 (UACC-62 melanoma) > 100 µM | GI50 (UO-31 renal) > 100 µM
> 100 µM: TGI (786-0 renal) | TGI (A498 renal) | TGI (A549 NSCLC) | TGI (ACHN renal) | TGI (CAKI-1 renal) | TGI (COLO 205 colon) | TGI (DU-145 prostate) | TGI (EKVX NSCLC) | TGI (HCC-2998 colon) | TGI (HCT-116 colon) | TGI (HCT-15 colon) | TGI (HL-60(TB) leukemia) | TGI (HOP-62 NSCLC) | TGI (HOP-92 NSCLC) | TGI (HS 578T breast) | TGI (HT29 colon) | TGI (IGROV1 ovarian) | TGI (K-562 leukemia) | TGI (KM12 colon) | TGI (LOX IMVI melanoma) | TGI (M14 melanoma) | TGI (MALME-3M melanoma) | TGI (MCF7 breast) | TGI (MDA-MB-231 breast) | TGI (MDA-MB-435) | TGI (MOLT-4 leukemia) | TGI (NCI-H226 lung) | TGI (NCI-H23 lung) | TGI (NCI-H460 lung) | TGI (NCI-H522 lung) | TGI (NCI/ADR-RES ovarian) | TGI (OVCAR-3 ovarian) | TGI (OVCAR-4 ovarian) | TGI (OVCAR-5 ovarian) | TGI (OVCAR-8 ovarian) | TGI (PC-3 prostate) | TGI (RPMI-8226 leukemia) | TGI (RXF 393 renal) | TGI (SF-268 CNS) | TGI (SF-295 CNS) | TGI (SF-539 CNS) | TGI (SK-MEL-2 melanoma) | TGI (SK-MEL-28 melanoma) | TGI (SK-MEL-5 melanoma) | TGI (SK-OV-3 ovarian) | TGI (SN12C renal) | TGI (SNB-19 CNS) | TGI (SNB-75 CNS) | TGI (SW-620 colon) | TGI (T-47D breast) | TGI (TK-10 renal) | TGI (U251 CNS) | TGI (UACC-257 melanoma) | TGI (UACC-62 melanoma) | TGI (UO-31 renal)

CC(=O)NC(Cc1ccc2ccccc2c1)C(=O)NC(Cc1ccc(Cl)cc1)C(=O)NC(Cc1cccnc1)C(=O)NC(CO)C(=O)NC(Cc1ccc(O)cc1)C(=O)NC(CCCN=C(N)N)C(=O)NC(CC(C)C)C(=O)NC(CCCN=C(N)N)C(=O)N1CCCC1C(=O)NC(C)C(N)=O (stereo not given) (Ac-[2Nal][Phe(4-Cl)][3Pal]SYRLRPA-NH2; configuration not given here)
> 100 µM: TGI (BT-549 breast) | TGI (HOP-92 NSCLC) | TGI (NCI-H226 lung) | TGI (NCI-H23 lung) | TGI (UACC-257 melanoma)
